From patent publication US20040014653A1, “Peptide composition” (priority 2000, published 2004)

System: Human keratinocytes (HatKat)
Assay: Growth of keratinocytes, cell count in Coulter counter after three days
Assay type: cell-based
Experimental: Human keratinocytes (HatKat) were grown in keratinocyte growth medium (TCS Cellworks Ltd.) until 20% confluence. Then, in the same medium, the keratinocytes were grown for three days with 0.5% foetal calf serum (FCS), at which point the cells were counted in a Coulter® counter. The cell numbers obtained are set out in Table 3 below.

For “EGF: epidermal growth factor, comparator growth factor in keratinocyte growth test”, the “increase in the growth of keratinocytes (in words)” value (10 ng/mi EGF versus medium with 0.5% FCS) was “relatively modest increase” and the Number of cells (Medium with 0.5% FCS + 10 ng/ml EGF, three days) was 29,356.
